Activity calls are given as the source filed them. The rule behind the calls is not given here.

Type in all cases: cell membranes
Test [1] has as its target Glutamate NMDA receptor. Briefly: Displacement of [3H]glycine from strychnine-insensitive glycine recognition site of NMDA receptor in rat brain cortex membrane.
For test [2], the target named is Glutamate NMDA receptor. Kind of test: Displacement of [3H]CGP39653 from glutamate recognition site of NMDA receptor in rat brain cortex membrane in presence of glycine antagonist 5,7-dichlorokynurenic acid.
Test [3] can be described thus: Partial agonist activity at glycine site of NMDA receptor in rat brain cortex membrane assessed as potentiation of [3H]Mk-801 binding by liquid scintillation counting.
Test [4] has as its target T1, Glutamate NMDA receptor (Rattus norvegicus) (UniProt P35439+Q00959+Q00960+Q00961+Q62645+Q8VHN2+Q9R1M7). Briefly: Displacement of [3H]MK-801 from ion channel site of NMDA receptor in rat brain cortex membrane.
The target in test [5] is T1, Glutamate NMDA receptor (Rattus norvegicus). Kind of test: Displacement of [3H]spermidine from polyamine site of NMDA receptor in rat brain cortex membrane. On the technique in general: Loss of bound radioactivity is the signal in a displacement assay; it reports binding, not function.
For test [6] the target is unchanged. Kind of test: Displacement of [3H]glycine from strychnine-insensitive glycine recognition site of NMDA receptor in rat brain cortex membrane at 3 uM.

One may read the pKi as −log10 of the Ki, conventionally taken in molar units. `C=CC[C@@H](N)C(=O)O` displayed a negative-log Ki (pKi) in test [1] of under 4.
Same read-out and setting: in the case of `Cn1c(C(=O)NCC(N)C(=O)O)cc2c(Br)cccc21` (racemic) it was 5; in that of `CCC/C=C/[C@H](N)C(=O)O`, 5.4; in that of `CC(N)(CO)C(=O)O` (centres undefined), under 4.
Take `NC(CNC(=O)c1ccc2ccccc2n1)C(=O)O` (racemic): the pKi in test [2] is listed as under 4; in test [1], 5.6.
As usually defined, the pEC50 is −log10 of the EC50, conventionally taken in molar units. As for `NC(CNC(=O)c1ccc[nH]1)C(=O)O` (racemic), in test [3], the pEC50 is reported as 5. The outcome in test [4] and in test [5] was inactive. In test [1], this compound yielded a pKi of 4.9.
With `N[C@@H](/C=C/CCO)C(=O)O`, the negative logarithm of the Ki (pKi) in test [1] is reported as 6.6.
Same read-out and setting: to `NC1(C(=O)O)CCC1` [1-AMINOCYCLOBUTANE CARBOXYLIC ACID] belongs 4.8.
As usually defined, the pA2 is a measure of antagonist potency on a negative log scale. As to `CCCc1c(C(=O)NCC(N)C(=O)O)[nH]c2ccccc12` (racemic), the results for the pKi in test [2] and in test [1] were 3.8 and 6.3, respectively. For the same compound, in test [3], the pA2 stood at 5.7. Moreover, the outcome in test [4] and in test [5] was inactive.
On to `NC(CNC(=O)c1cc2c(Br)cccc2s1)C(=O)O` (racemic), for which the values for the negative logarithm of the Ki (pKi) in test [2] and in test [1] were under 4 and 6.4, respectively. In addition, the result in test [4] and in test [5] was inactive.
For `NC(CNC(=O)c1ccc2ccccc2c1)C(=O)O` (racemic), the negative-log Ki (pKi) in test [2] was under 4; in test [1], 5.9. Besides, the result in test [4] and in test [5] was inactive.
With `CCc1ccccc1-c1cccc2[nH]c(C(=O)NC[C@@H](N)C(=O)O)cc12`, the pKi was 5.4 in test [2] and 7.6 in test [1]. In test [3], the pEC50 is 7.7. Also, the result in test [4] and in test [5] was inactive.
Turning to `NC(CNC(=O)Cc1c[nH]c2cccc(Br)c12)C(=O)O` (racemic), the negative-log Ki (pKi) is reported as under 4 in test [2] and 4.3 in test [1].
Turning to `CN(C)c1ccccc1-c1cccc2[nH]c(C(=O)NCC(N)C(=O)O)cc12` (racemic), the results for the pKi in test [2] and in test [1] were 4.1 and 5.8, respectively. For the same compound, the pEC50 in test [3] was 6.5.
Take `CCCc1c(C(=O)NCC(N)C(=O)O)[nH]c2cccc(-c3ccccc3CC)c12` (racemic): the pKi in test [2] stood at 5.3; in test [1], 6.8.
As to `NC(CNC(=O)c1cc2c(Cl)ccc(Cl)c2[nH]1)C(=O)O` (racemic), the pKi in test [2] worked out at 4; in test [1], 6.8. Further, the pA2 in test [3] is recorded as 6.2.
On to `N[C@H](CNC(=O)c1cc2ccccc2[nH]1)C(=O)O`, for which the pKi is recorded as 3.8 in test [2] and 5.3 in test [1]. For the same compound, in test [3], the pEC50 came out at 5.3. Moreover, the outcome in test [4] and in test [5] was inactive.
On to `COc1ccccc1-c1cccc2[nH]c(C(=O)NCC(N)C(=O)O)cc12` (racemic), for which the results for the negative logarithm of the Ki (pKi) in test [2] and in test [1] were 4.3 and 5.6, respectively.
For `CC(C)c1ccccc1-c1cccc2[nH]c(C(=O)NCC(N)C(=O)O)cc12` (racemic), in that order: 5.6 and 7.3.
Regarding `C[C@@H](N)C(=O)O` [D-ALANINE], the pKi in test [1] is listed as 6.2.
For the compound `CCc1ccccc1-c1ccc(Cl)c2[nH]c(C(=O)NCC(N)C(=O)O)cc12` (racemic), the values for the negative-log Ki (pKi) in test [2] and in test [1] were under 4.5 and 6.9, respectively.
Turning to `Cc1ccccc1-c1cccc2[nH]c(C(=O)NCC(N)C(=O)O)cc12` (racemic), the negative-log Ki (pKi) in test [2] is given as 5.2; in test [1] it was 6.5. The pEC50 in test [3] stood at 6.9.
For the compound `CCc1ccccc1-c1cccc2[nH]c(C(=O)NCC(N)C(=O)O)cc12` (racemic), the pKi in test [2] amounted to 4.9; in test [1] it was 7.5.
`COC[C@@H](N)C(=O)O`: the outcome in test [6] was inactive.
In test [1], `NC(CNC(=O)c1cc2cc(Cl)ccc2[nH]1)C(=O)O` (racemic) returned a negative logarithm of the Ki (pKi) of 4.7.
In turn, `COC(=O)NCC(N)C(=O)O` (racemic) had a pKi in test [1] of 4.1.
For `NC(CNC(=O)c1ccco1)C(=O)O` (racemic), the pEC50 in test [3] was 5.1. Also, the outcome in test [4] and in test [5] was inactive. The pKi in test [1] was 4.9.
As to `NC(CNC(=O)c1cccc2ccccc12)C(=O)O` (racemic), the pKi is given as under 4 in test [2] and 5.9 in test [1].
In test [1], `NC1(C(=O)O)CCCC1` [CYCLOLEUCINE] returned a negative logarithm of the Ki (pKi) of 2.7.
As for `NC(CNC(=O)c1cc2c(-c3ccc(Cl)cc3Cl)cccc2s1)C(=O)O` (racemic), the negative-log Ki (pKi) in test [2] is under 4.5; in test [1], 4.7. The pA2 in test [3] is 5.1. The outcome in test [4] and in test [5] was inactive.
In test [1], `NC(CNC(=O)Cc1c[nH]c2ccccc12)C(=O)O` (racemic) registered a pKi of under 4.
As for `CCCc1c(C(=O)NCC(N)C(=O)O)[nH]c2cccc(Br)c12` (racemic), the values for the negative logarithm of the Ki (pKi) in test [2] and in test [1] were 4.2 and 6.5, respectively. The pA2 in test [3] came out at 6.
In turn, `CCCCCC/C=C/[C@H](N)C(=O)O` displayed a negative-log Ki (pKi) in test [1] of 5.9.
In the case of `CCc1ccccc1-c1cccc2sc(C(=O)NCC(N)C(=O)O)cc12` (racemic), the negative-log Ki (pKi) in test [2] was determined as 3.9; in test [1], 6.2. In addition, the outcome in test [4] and in test [5] was inactive.
For `CCc1ccccc1-c1cccc2cc(C(=O)NCC(N)C(=O)O)ccc12` (racemic), the negative-log Ki (pKi) turned out to be 4.5 in test [2] and 5.7 in test [1].
As to `NC(CNC(=O)c1cc2c(-c3ccccc3Cc3ccccc3)cccc2[nH]1)C(=O)O` (racemic), the pKi in test [2] is given as under 5.5; in test [1], 6. For the same compound, in test [3], the pEC50 came to 6.5.
On to `CCCc1ccccc1-c1cccc2[nH]c(C(=O)NCC(N)C(=O)O)cc12` (racemic), for which the results for the pKi in test [2] and in test [1] were 5.4 and 7.3, respectively. Besides, the pEC50 in test [3] was 7.6.
`CC[C@@H](N)C(=O)O` showed a pKi in test [1] of under 4.
For the compound `NC(CNC(=O)c1cc2c(Cl)cccc2[nH]1)C(=O)O` (racemic), the pKi in test [2] was determined as 4.1; in test [1], 6.
On to `NC(CNC(=O)C1Cc2ccccc2C1)C(=O)O` (racemic), for which the negative-log Ki (pKi) in test [1] was under 4.
As to `N[C@H](CNC(=O)c1cc2c(Br)cccc2[nH]1)C(=O)O`, the pKi is given as 4.6 in test [2] and 7 in test [1]. In test [3], the negative-log EC50 (pEC50) is on record as 6.6. Besides, the outcome in test [4] and in test [5] was inactive.
In turn, `Cn1c(C(=O)NCC(N)C(=O)O)cc2ccccc21` (racemic) displayed a negative-log Ki (pKi) in test [1] of 4.9.
`NC(CNC(=O)c1[nH]c2cccc(Br)c2c1[N+](=O)[O-])C(=O)O` (racemic): the negative-log Ki (pKi) in test [2] was found to be 4.9; in test [1], 6.1.
The like results for `NC(CNC(=O)c1cc2c(Cl)cccc2s1)C(=O)O` (racemic) were, in that order, under 4 and 6.5.
The like results for `COc1cccc2[nH]c(C(=O)NCC(N)C(=O)O)cc12` (racemic) were, in that order, 4.1 and 5.9.
Consider `NC(CNC(=O)c1ccccn1)C(=O)O` (racemic), for which the negative-log Ki (pKi) in test [1] is listed as 4.4.
Take `NC(CNC(=O)c1cc2ccccc2o1)C(=O)O` (racemic): the values for the negative-log Ki (pKi) in test [2] and in test [1] were under 4 and 5.2, respectively.
For `NC(CNC(=O)C1=Cc2ccccc2C1)C(=O)O` (racemic), in that order: under 4 and 5.5.
Take `NC(CNC(=O)c1c[nH]c2ccccc12)C(=O)O` (racemic): the result in test [4] and in test [5] was inactive. For the same compound, the negative-log Ki (pKi) in test [1] stood at 5.4.
As for `NC(CNC(=O)c1ccc2c(Br)cccc2c1)C(=O)O` (racemic), the negative-log Ki (pKi) in test [2] is 4.3; in test [1], 6.6.
`Cc1c(C(=O)NCC(N)C(=O)O)[nH]c2ccccc12` (racemic) returned a pKi in test [1] of 5.5.
Same read-out and setting: in the case of `NC1(C(=O)O)CCCCC1` it was under 3.
In the case of `NC(CNC(=O)c1cc2c(Br)cccc2[nH]1)C(=O)O` (racemic), the values for the pKi in test [2] and in test [1] were 4.7 and 6.8, respectively.
As for `CC(O)[C@@H](N)C(=O)O` (some centres undefined), the outcome in test [6] was inactive.
Consider `NC1(C(=O)O)CC1` [1-Aminocyclopropane carboxylic acid], for which the negative-log Ki (pKi) in test [1] is listed as 6.8.
On the same count and under the same terms, in the case of `CCc1ccccc1-c1cccc2c1cc(C(=O)NCC(N)C(=O)O)n2C` (racemic) it was 3.9; in that of `NC(CNC(=O)c1cc2cccc(Cl)c2[nH]1)C(=O)O` (racemic), 5.5.
On the same count and under the same terms, in the case of `NC(C(=O)O)C1CC1` (centres undefined) it was under 4.
As to `N#Cc1cccc2sc(C(=O)NCC(N)C(=O)O)cc12` (racemic), the pKi is recorded as under 4 in test [2] and 5.9 in test [1]. In addition, the pA2 in test [3] is reported as 5.5. Moreover, the result in test [4] and in test [5] was inactive.
For `NC(CNC(=O)c1cc2c(-c3ccccc3)cccc2[nH]1)C(=O)O` (racemic), the pKi amounted to 4.7 in test [2] and 5.6 in test [1].
In turn, `NC(CNC(=O)c1cc2ccc(Cl)cc2[nH]1)C(=O)O` (racemic) yielded a pKi in test [1] of 4.9.
On the same count and under the same terms, in the case of `N[C@@H](CNC(=O)c1cc2ccccc2[nH]1)C(=O)O` it was under 4; in that of `CCNC(=O)NCC(N)C(=O)O` (racemic), under 4.

The values above are taken from ChEMBL document CHEMBL1152981 (J Med Chem, 2009).
